{
  "source": "patent US10265289B2",
  "about": "“Method and medicines for treating melanoma” (SICHUAN JIUZHANG BIOLOGICAL SCIENCE AND TECHNOLOGY CO., LTD., priority 2015, dated 2019)",
  "key": {"mouse melanoma B16 [1]": {"tested_on": "mouse melanoma B16", "experiment": "Example 5: chlorogenic acid-cyclophosphamide combination against mouse melanoma B16", "description": "(§1) After inoculation, animals were divided into groups next day, weighed, and administration of drugs started.\n(§2) Each group contains 15 animals."}, "mouse melanoma B16 [2]": {"tested_on": "mouse melanoma B16", "experiment": "Example 4: tumor inhibitory rate of chlorogenic acid against mouse melanoma B16", "description": "as §1\nEach group includes 15 animals."}, "mouse melanoma B16 [3]": {"tested_on": "mouse melanoma B16", "experiment": "Example 6: chlorogenic acid-adriamycin or chlorogenic acid-cisplatin combination against mouse melanoma B16", "type": "in vivo", "description": "as §2"}, "mouse melanoma B16 [4]": {"tested_on": "mouse melanoma B16", "experiment": "Example 7: chlorogenic acid-5-flurouracil combination against mouse melanoma B16", "conditions": "5-flurouracil 500 mg/kg × 4, i.p.", "protocol": "Next day after inoculation, animals were divided into groups, weighed, and administration of drugs started. Normal saline was administrated to mice in the negative control group by peritoneal injection at 0.2 ml/10 g, once a day.\nEach group contains 12 animals. […] Tumor control rate (%) was calculated based on tumor weight."}, "[5]": {"tested_on": "M1-type and M2-type macrophages (iNOS, IL-10, Arg expression)", "experiment": "Example 3: transformation of M2-type to M1-type macrophages (IL-4) in mouse melanoma B16 model", "type": "in vivo", "conditions": "IL-4 + chlorogenic acid 5, 10, 20 mg/kg", "procedure": "Each group includes 15 animals. After successful anesthesia of mice, bilateral eyeballs were removed and mice were killed by bleeding. […] Mice were placed in supine position, with segmental […] being toward up. 5 ml serum-free DMEM medium preheated at 37° C. was drawn out using 5 ml aseptic syringe, and middle-lower abdominal skin of mice was lifted with a tweezer, then 5 ml medium was injected to abdominal cavity (note: needlepoint being toward up, avoiding intestinal canal and fat). After that, bilateral peritoneal wall was gently kneaded and pressed for about 20-30 seconds, to make the intraperitoneal fluid fully flow. When collecting the peritoneal fluid, a little cut was opened on mouse hypogastric region using a surgical scissor, and skin was […] toward two sides, to thoroughly expose the peritoneum, then it was wiped and cleaned with 75% alcoholic cotton balls for sterilization. […] (3) Cell phenotype was detected by flow cytometer, and the corresponding marker of same sample was determined using real-time fluorescent quantified PCR. […]"}, "[6]": {"tested_on": "M1-type macrophage markers iNOS, IL-12, TNF-α and M2-type macrophage marker Arg", "experiment": "Example 1: macrophage marker expression (flow cytometer, real-time fluorescent quantified PCR) in mouse melanoma B16 model", "type": "in vivo", "conditions": "5, 10, 20 mg/kg i.p. once a day for 13 days", "procedure": "Each group has 15 animals. […] After successful anesthesia of mice, bilateral eyeballs were removed and mice were killed by bleeding. […] Mice were placed in supine position, with segmental […] being toward up. 5 ml serum-free DMEM medium preheated at 37° C. was drawn out using 5 ml aseptic syringe, and middle-lower abdominal skin of mice was lifted with a tweezer, then 5 ml pre-suctioned serum-free DMEM medium preheated at 37° C. was injected to abdominal cavity (note: needlepoint being toward up, avoiding intestinal canal and fat). After that, bilateral peritoneal wall was gently kneaded and pressed for about 20-30 seconds, to make the intraperitoneal fluid fully flow. When collecting the peritoneal fluid, a little cut was opened on mouse hypogastric region using a surgical scissor, and skin was […] toward two sides, to thoroughly expose the peritoneum, then it was wiped and cleaned with 75% alcoholic cotton balls for sterilization. Further, about […] of little cut was opened on mouse peritoneum using ophthalmic scissors, and the peritoneal fluid was drawn back with 5 ml aseptic syringe (Try not to absorb intestinal canal and fat, otherwise, it is easy to cause contamination of fibroblasts), then transferred to 15.0 ml centrifuge tube and centrifugated at 1200 rpm/min for 5 min, to remove the supernatant fluid. The residue was re-suspended in sterile normal saline at […] and transferred into 1.5 ml centrifuge tube for use. […] During enzymatic digestion, centrifuge tubes were shaken every 10-15 minutes. When the fluid in centrifuge tubes became turbid, the piece of tumor tissue had already disintegrated and lost its massive shape. Once being shaken, the mass would become cell clumps or single cell, indicating the tumor tissue piece had already been fully digested. The enzymatic digestion time can be suitably shortened or elongated as the digestion degree of tumor tissue. […] Cells were re-suspended in sterile normal saline at […], and transferred to 1.5 ml centrifuge tubes for use. (3) Cell phenotype was detected by flow cytometer, and the corresponding marker of same sample was determined using real-time fluorescent quantified PCR. Results were shown in FIGS. 1-3, in which FIGS. 1-3 are respectively the detection result graphs of iNOS, IL-12, Arg expression in example 1. FIG. 4 is the detection result graph of TNF-α expression in example 1."}, "[7]": {"tested_on": "M1-type macrophage marker iNOS and M2-type macrophage marker Arg", "experiment": "Example 2: maintenance of M1-type macrophages (LPS+INFγ) in mouse melanoma B16 model", "type": "in vivo", "conditions": "LPS + INFγ + chlorogenic acid 5, 10, 20 mg/kg, dose-dependent", "procedure": "Each group includes 15 animals. After successful anesthesia of mice, bilateral eyeballs were removed and mice were killed by bleeding. […] Mice were placed in supine position, with segmental […] being toward up. 5 ml serum-free DMEM medium preheated at 37° C. was drawn out using 5 ml aseptic syringe, and middle-lower abdominal skin of mice was lifted with a tweezer, then 5 ml pre-suctioned serum-free DMEM medium preheated at 37° C. was injected to abdominal cavity (note: needlepoint being toward up, avoiding intestinal canal and fat). After that, bilateral peritoneal wall was gently kneaded and pressed for about 20-30 seconds, to make the intraperitoneal fluid fully flow. When collecting the peritoneal fluid, a little cut was opened on mouse hypogastric region using a surgical scissor, and skin was […] toward two sides, to thoroughly expose the peritoneum, then it was wiped and cleaned with 75% alcoholic cotton balls for sterilization. […] (3) Cell phenotype was detected by flow cytometer, and the corresponding marker of same sample was determined using real-time fluorescent quantified PCR. […]"}, "[8]": {"conditions": "cyclophosphamide 60 mg/kg × 1, i.p."}, "[9]": {"conditions": "dose-dependent, strongest at 20 mg/kg"}},
  "data": [
    {"smiles": "O=P1(N(CCCl)CCCl)NCCCO1", "note": "(stereo not drawn) [cyclophosphamide, reference compound]", "values": [
      {"measurement": "Tumor inhibitory rate (%)", "setting": "mouse melanoma B16 [1]; [8]", "value": 61.40, "unit": "%"},
      {"measurement": "Tumor weight (g) x ± SD", "setting": "mouse melanoma B16 [1]; [8]", "value": "1.46 ± 0.54", "unit": "g"},
      {"measurement": "Body weight (g) x ± SD End", "setting": "mouse melanoma B16 [1]; cyclophosphamide 60 mg/kg × 1, i.p., end of study", "value": "22.58 ± 1.15", "unit": "g"},
      {"measurement": "Tumor inhibitory rate (%)", "setting": "mouse melanoma B16 [2]; [8]", "value": 57.79, "unit": "%"},
      {"measurement": "Tumor weight (g) x ± SD", "setting": "mouse melanoma B16 [2]; [8]", "value": "1.38 ± 0.62", "unit": "g"},
      {"measurement": "Body weight (g) x ± SD End", "setting": "mouse melanoma B16 [2]; cyclophosphamide 60 mg/kg × 1, i.p., C57BL/6 mice, end of study", "value": "23.01 ± 1.04", "unit": "g"}
    ]},
    {"smiles": "COc1cccc2c1C(=O)c1c(O)c3c(c(O)c1C2=O)C[C@@](O)(C(=O)CO)C[C@@H]3O[C@H]1C[C@H](N)[C@H](O)[C@H](C)O1", "note": "[Adriamycin, adriamycin]", "values": [
      {"measurement": "Body weight change rate (%)", "setting": "mouse melanoma B16 [3]; adriamycin 3 mg/kg × 6, i.p.", "value": 22.39, "unit": "%"},
      {"measurement": "Tumor inhibitory rate (%)", "setting": "mouse melanoma B16 [3]; adriamycin 3 mg/kg × 6, i.p.", "value": 58.89, "unit": "%"},
      {"measurement": "Tumor weight (g) x ± SD", "setting": "mouse melanoma B16 [3]; adriamycin 3 mg/kg × 6, i.p.", "value": "1.90 ± 0.56", "unit": "g"}
    ]},
    {"smiles": "N.N.[Cl][Pt][Cl]", "note": "[Cisplatin, cisplatin]", "values": [
      {"measurement": "Tumor inhibitory rate (%)", "setting": "mouse melanoma B16 [3]; cisplatin 3 mg/kg × 6, i.p.", "value": 65.97, "unit": "%"},
      {"measurement": "Tumor weight (g) x ± SD", "setting": "mouse melanoma B16 [3]; cisplatin 3 mg/kg × 6, i.p.", "value": "1.58 ± 0.69", "unit": "g"}
    ]},
    {"smiles": "O=c1[nH]cc(F)c(=O)[nH]1", "note": "[5-flurouracil, 5-fluorouracil]", "values": [
      {"measurement": "Tumor inhibitory rate (%)", "setting": "mouse melanoma B16 [4]", "value": 86.80, "unit": "%"},
      {"measurement": "Tumor weight (g) x ± SD", "setting": "mouse melanoma B16 [4]", "value": "0.30 ± 0.18", "unit": "g"},
      {"measurement": "Body weight (g) x ± SD Initial", "setting": "mouse melanoma B16 [4]; BALB/c mice, before dosing", "value": "19.17 ± 0.72", "unit": "g"}
    ]},
    {"smiles": "O=C(/C=C/c1ccc(O)c(O)c1)O[C@@H]1C[C@](O)(C(=O)O)C[C@@H](O)[C@H]1O", "note": "[Chlorogenic acid, 3-O-caffeoylquinic acid]", "values": [
      {"measurement": "effect of combination on anti-tumor effects of cyclophosphamide", "setting": "mouse melanoma B16 [1]; 20 mg/kg chlorogenic acid combined with cyclophosphamide 60 mg/kg", "value": "obviously improve anti-tumor effects of cyclophosphamide"},
      {"measurement": "Tumor inhibitory rate (%)", "setting": "mouse melanoma B16 [2]; 5 mg/kg × 13, i.p. once a day", "value": 17.23, "unit": "%"},
      {"measurement": "Tumor weight (g) x ± SD", "setting": "mouse melanoma B16 [2]; 5 mg/kg × 13, i.p. once a day", "value": "2.70 ± 0.76", "unit": "g"},
      {"measurement": "Tumor inhibitory rate (%)", "setting": "mouse melanoma B16 [2]; 10 mg/kg × 13, i.p. once a day", "value": 43.87, "unit": "%"},
      {"measurement": "Tumor weight (g) x ± SD", "setting": "mouse melanoma B16 [2]; 10 mg/kg × 13, i.p. once a day", "value": "1.83 ± 0.86", "unit": "g"},
      {"measurement": "Tumor inhibitory rate compared with cyclophosphamide", "setting": "mouse melanoma B16 [2]; 20 mg/kg chlorogenic acid vs 60 mg/kg cyclophosphamide", "value": "close to that of cyclophosphamide"},
      {"measurement": "Tumor inhibitory rate (%)", "setting": "mouse melanoma B16 [2]; 20 mg/kg × 13, i.p. once a day", "value": 48.66, "unit": "%"},
      {"measurement": "Tumor weight (g) x ± SD", "setting": "mouse melanoma B16 [2]; 20 mg/kg × 13, i.p. once a day", "value": "1.68 ± 0.69", "unit": "g"},
      {"measurement": "effect on growth of mouse melanoma B16", "setting": "mouse melanoma B16 [2]; intraperitoneal injection, 5-20 mg/kg × 13, certain dose-effect relationship", "value": "obviously inhibitory effect"},
      {"measurement": "growth of M1-type macrophage cells (FIG. 7)", "setting": "[5]", "value": "positive correlation with the dose"},
      {"measurement": "growth of M2-type macrophage cells (FIG. 8)", "setting": "[5]", "value": "negative correlation with the dose"},
      {"measurement": "expression of M1-type macrophage marker TNF-α (FIG. 4)", "setting": "[6]", "value": "promote the expression"},
      {"measurement": "expression of M1-type macrophage marker IL-12 (FIG. 2)", "setting": "[6]; [9]", "value": "obviously promote the expression"},
      {"measurement": "expression of M1-type macrophage marker iNOS (FIG. 1)", "setting": "[6]; [9]", "value": "obviously promote the expression"},
      {"measurement": "expression of M2-type macrophage marker Arg (FIG. 3)", "setting": "[6]; [9]", "value": "obviously inhibit the expression"},
      {"measurement": "state of M2-type macrophage marker Arg (FIG. 6)", "setting": "[7]", "value": "relatively lower state"},
      {"measurement": "expression state of M1-type macrophage markers (iNOS, FIG. 5)", "setting": "[7]; highest at 20 mg/kg", "value": "maintain the high expression state"},
      {"measurement": "effect on the anti-tumor effect of adriamycin", "setting": "mouse melanoma B16 [3]; 20 mg/kg chlorogenic acid + 3 mg/kg adriamycin", "value": "significantly potentialize"},
      {"measurement": "effect on the anti-tumor effect of cisplatin", "setting": "mouse melanoma B16 [3]; 20 mg/kg chlorogenic acid + 3 mg/kg cisplatin", "value": "significantly potentialize"}
    ]}
  ]
}
